Reference: ChEMBL document CHEMBL1158016, “Six new spongian diterpenes from the sponge spongia matamata” (J Nat Prod, 1999)
Values after ≈ are worked out from the molar mass of the structure shown.

Assays:
Artemia = assay: (§1) Toxicity in brine shrimp; type: organism-based; conditions: in vivo
[1] = as §1; type: organism-based; conditions: artemia, in vivo

Row | Compound | Activity (Artemia) | LC50 [1] [µg/mL]
1 | COC1O[C@H](OC)[C@]2(O)[C@]1(O)CC[C@@H]1[C@@]3(C)CCC[C@](C)(C(=O)O)[C@@H]3CC[C@]12C (stereo partly specified) | Non-toxic | 
2 | C[C@]12CCC[C@](C)(C(=O)O)[C@@H]1CC[C@@]1(C)c3cocc3CC[C@H]21 |  | 10 (≈ 31.6 µM)
3 | CO[C@H]1OC(=O)C2=C1[C@]1(C)CC[C@@H]3[C@](C)(CCC[C@]3(C)C(=O)O)[C@H]1CC2 | Non-toxic | 
4 | C[C@]12CCC[C@](C)(C(=O)O)[C@@H]1CC[C@@]1(C)C3=C(CC[C@H]21)C(=O)OC3 | Non-toxic | 
5 | CO[C@@H]1OC(=O)C2=C1CC[C@@H]1[C@@]3(C)CCC[C@](C)(C(=O)O)[C@@H]3CC[C@@]21C | Non-toxic | 
6 | C[C@]12CCC[C@](C)(C(=O)O)[C@@H]1CC[C@@]1(C)C3=C(CC[C@H]21)COC3=O | Non-toxic | 
